This note sets out measurements from article PMC8352872, “Biochemical and structural studies of target lectin SapL1 from the emerging opportunistic microfungus Scedosporium apiospermum” (Scientific Reports, 2021).

The target in data set [1] is T1, SapL1 (Scedosporium apiospermum, UniProt A0A084FYP2).
T1 construct: gene SAPIO_CDS9261; carbohydrate recognition domain, residues 75-369
Kind of data set: ITC (stoichiometry fixed to […]). The class given is binding.

Data set [2] has as its target T1, SapL1. Description: (X-ray) and ITC (stoichiometry fixed to […]). Format: binding.
Data set [3] deals with the molecule itself. Kind of data set: dynamic light scattering; protein at 1 mg/mL in 50 mM Tris-HCl, 100 mM NaCl, pH 8.5, measured in triplicate after centrifugation; data not shown.

The Kd is the equilibrium constant for the complex coming apart. On SapL1 [1], `C[C@@H]1OC(O)[C@@H](O)[C@H](O)[C@@H]1O` (stereo partly drawn) [L-fucose] yielded a Kd of 225 ± 1.52 µM.

Take `CO[C@@H]1O[C@@H](C)[C@@H](O)[C@@H](O)[C@@H]1O` [α-methyl-L-fucoside, methyl-α-L-fucopyranoside]: binding on SapL1 [2] was put at a Kd of 190 ± 1.44 µM.

B1: Scedosporium apiospermum Lectin 1 (SapL1), carbohydrate recognition domain, residues 75-369 (domain or fragment)
chain: MSGVLQISFPAGIAAIRNNSSLRVYEAALDGGVREAQYEGRWAGGKPDNVIATGKIGTPIAATSVGFQYIRVYYVGADNKAREACWDGKGWYTGAFVKDVAPYSSIGAVFLGKNIVVRVYTQNHDNTIQEWVWDSPSTGWTAGANFGAALPGTAIAATSWGAGPYHIRVYFQDTNRNVIESGWDGSGWYTGGLKISNQSPRASLGATSWGESGSSLGIRLYYATQDNLIKEKAWDGGGGWYDGGFQQRSIPGSRVAAIPLPVLRVYLQNGTEVSGITEYAWNSGWVVGQAVLPPA
notes: the first 74 residues of the annotated protein, which the authors suspect to be a misannotation, are left out; In the crystal all 295 amino acids are visible except the N-terminal methionine; also called hypothetical protein XP_016640003.1; source: E. coli BL21trxB (DE3), pProNde vector, purified (IMAC, TEV cleavage, second His-trap pass); not shown: His6, N-terminal, cleaved
For orientation: stoichiometry N means a count of units in the complex or per binding partner. Regarding B1, the “stoichiometry N” value in data set [3] was found to be 2.
